# ChEMBL document CHEMBL1201862, “PubChem BioAssay data set” (2004)
#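 Method: 48-hour compound exposure of cells in 96-well plates, five concentrations, linear interpolation of endpoints. The concentration for 50% growth inhibition is given as GI50.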 Active and inactive are the calls of the source. Cut-off read from the data, not from the text of the source: active = GI50 up to about 1.1 µM and inactive = higher. Non-standard residues stand in square brackets, D forms with d. Residues, ends and D or L forms follow the SMILES beside them. ξ: configuration not given here. Pen = CC(C)(S)[C@H](N)C(=O)O; ξL = CC(C)CC(N)C(=O)O
# Tests used:
# Assay in all cases: NCI anticancer screen, dose series, 48 h
# [1] = tested on: SNB-78
# [2] = tested on: ACHN
# [3] = tested on: DMS-114
# [4] = tested on: XF498
# [5] = tested on: EKVX
# [6] = tested on: M14
# [7] = tested on: TK-10
# [8] = tested on: CAKI-1
# [9] = tested on: SR
# [10] = tested on: DLD-1
# [11] = tested on: A498
# [12] = tested on: HOP-18
# [13] = tested on: DMS-273
# [14] = tested on: HL-60
# [15] = tested on: LOX IMVI
# [16] = tested on: KM-20L2
# [17] = tested on: M19-MEL
# [18] = tested on: MCF7
Structure (SMILES),GI50 [1],GI50 [2],GI50 [3],GI50 [4],GI50 [5],GI50 [6],GI50 [7],GI50 [8],GI50 [9],GI50 [10],GI50 [11],GI50 [12],GI50 [13],GI50 [14],GI50 [15],GI50 [16],GI50 [17],GI50 [18]
COC(=O)C(/C(=N/NC(N)=S)C(=O)Nc1ccccc1[N+](=O)[O-])c1cnc2ccccc2n1 (stereo unspecified),> 100 µM (inactive),> 100 µM (inactive),> 100 µM (inactive),> 100 µM (inactive),> 100 µM (inactive),> 100 µM (inactive),> 100 µM (inactive),> 100 µM (inactive),> 100 µM (inactive),> 100 µM (inactive),> 100 µM (inactive),> 100 µM (inactive),> 100 µM (inactive),> 100 µM (inactive),> 100 µM (inactive),> 100 µM (inactive),> 100 µM (inactive),
O=C1C2C3C=C4c5ccccc5N(c5ccccc5)C4(C2C(=O)N1Cc1ccccc1)C1C(=O)N(Cc2ccccc2)C(=O)C31 (stereo unspecified),> 100 µM (inactive),> 100 µM (inactive),> 100 µM (inactive),96.2 µM (inactive),,> 10 µM (inactive),> 100 µM (inactive),> 10 µM (inactive),> 100 µM (inactive),> 100 µM (inactive),> 100 µM (inactive),> 100 µM (inactive),,> 100 µM (inactive),78.9 µM (inactive),> 100 µM (inactive),70.3 µM (inactive),
CCOC(=O)/C=C/c1c[nH]c(C(=O)OCC)c1,> 86.1 µM (inactive),,> 100 µM (inactive),> 95.1 µM (inactive),> 85.7 µM (inactive),,,> 100 µM (inactive),,> 100 µM (inactive),> 100 µM (inactive),> 100 µM (inactive),> 100 µM (inactive),> 100 µM (inactive),> 100 µM (inactive),> 100 µM (inactive),> 100 µM (inactive),> 100 µM (inactive)
C[Si](C)(C)/C(I)=C/CO,28.6 µM (inactive),17 µM (inactive),,13.6 µM (inactive),29.9 µM (inactive),35.2 µM (inactive),33.3 µM (inactive),,,,38.6 µM (inactive),32 µM (inactive),20.6 µM (inactive),,19.3 µM (inactive),20.5 µM (inactive),20.8 µM (inactive),
CCOC(=O)CNC(=O)NC12CC3CC(CC(C3)C1)C2,221 µM (inactive),,179 µM (inactive),22.1 µM (inactive),191 µM (inactive),,,169 µM (inactive),,65.8 µM (inactive),147 µM (inactive),161 µM (inactive),223 µM (inactive),177 µM (inactive),237 µM (inactive),237 µM (inactive),111 µM (inactive),115 µM (inactive)
CSCC[C@H](NC(=O)C(CC(C)C)NC(=O)[C@H](Cc1c[nH]cn1)NC(=O)CNC(=O)[C@@H](NC(=O)[C@@H](C)NC(=O)[C@H](Cc1c[nH]c2ccccc12)NC(=O)[C@H](CCC(N)=O)NC(=O)[C@@H](N)CC(N)=O)C(C)(C)SC)C(N)=O (stereo partly specified) (H-NQW[dA][Pen](Me)GH[ξL]M-NH2),> 100 µM (inactive),,> 100 µM (inactive),> 100 µM (inactive),> 100 µM (inactive),,,> 100 µM (inactive),,> 100 µM (inactive),> 100 µM (inactive),> 100 µM (inactive),> 100 µM (inactive),> 100 µM (inactive),> 100 µM (inactive),> 100 µM (inactive),> 100 µM (inactive),> 100 µM (inactive)
C=CC1(c2ccccc2Cl)N/C(=C/OCC)CO1 (stereo unspecified),> 100 µM (inactive),> 100 µM (inactive),> 100 µM (inactive),> 100 µM (inactive),> 100 µM (inactive),> 100 µM (inactive),> 100 µM (inactive),> 100 µM (inactive),> 100 µM (inactive),33.5 µM (inactive),> 100 µM (inactive),> 100 µM (inactive),> 100 µM (inactive),47.9 µM (inactive),23.5 µM (inactive),> 100 µM (inactive),> 100 µM (inactive),
C=C1C[C@@H](O)C[C@@]2(C)C[C@@H]3OC(=O)C(=C)[C@@H]3C[C@H]12,7.69 µM (inactive),,8.73 µM (inactive),0.678 µM (active),,,,4.22 µM (inactive),,3.85 µM (inactive),12.4 µM (inactive),3.98 µM (inactive),5.35 µM (inactive),1.89 µM (inactive),4.46 µM (inactive),5.83 µM (inactive),20.4 µM (inactive),3.78 µM (inactive)
CN(C)CCNC(=O)c1cc(Cl)cc2cc3ccccc3nc12,1.97 µM (inactive),,0.792 µM (active),0.966 µM (active),1.43 µM (inactive),,,,,0.652 µM (active),0.179 µM (active),6.44 µM (inactive),0.733 µM (active),0.578 µM (active),0.597 µM (active),0.422 µM (active),1.3 µM (inactive),0.757 µM (active)
Cc1cc(O)c2c(c1O)C(=O)C13C(=C(O)C4C(O)C1C1C(O)C3C(O)=C3C(=O)c5c(O)cc(C)c(O)c5C(=O)C341)C2=O (stereo unspecified),0.0803 µM (active),,0.0146 µM (active),0.134 µM (active),0.0845 µM (active),,,0.209 µM (active),,0.0455 µM (active),0.0362 µM (active),0.0615 µM (active),0.0962 µM (active),,0.106 µM (active),4.28 µM (inactive),0.0545 µM (active),0.0577 µM (active)
CN(C)CCOc1cc2c(c3ccccc13)-c1ccccc1C2=O,6.03 µM (inactive),,1.09 µM (active),1.6 µM (inactive),4.91 µM (inactive),,,0.388 µM (active),,1.15 µM (inactive),6.68 µM (inactive),2.07 µM (inactive),0.531 µM (active),1.24 µM (inactive),1.05 µM (active),2.1 µM (inactive),1.35 µM (inactive),1.1 µM (active)
